From US20060270615A1, “Compositions suitable for the treatment of damage caused by ischemia/reper-fusion or oxidative stress” (N.V. NUTRICIA, priority 2000, published 2006) come the findings set out here.

Where “and” joins values, the source holds several entries; their conditions need not be identical. Equal entries are not always repeated.

For assay [1], the target named is T1, xanthine oxidase (grade I from buttermilk) (Bos taurus, UniProt P80457).
T1 construct: XOD (xanthine oxidase) (grade I from buttermilk); from tissue; host or cells: buttermilk
T1 sequence (P80457 whole entry): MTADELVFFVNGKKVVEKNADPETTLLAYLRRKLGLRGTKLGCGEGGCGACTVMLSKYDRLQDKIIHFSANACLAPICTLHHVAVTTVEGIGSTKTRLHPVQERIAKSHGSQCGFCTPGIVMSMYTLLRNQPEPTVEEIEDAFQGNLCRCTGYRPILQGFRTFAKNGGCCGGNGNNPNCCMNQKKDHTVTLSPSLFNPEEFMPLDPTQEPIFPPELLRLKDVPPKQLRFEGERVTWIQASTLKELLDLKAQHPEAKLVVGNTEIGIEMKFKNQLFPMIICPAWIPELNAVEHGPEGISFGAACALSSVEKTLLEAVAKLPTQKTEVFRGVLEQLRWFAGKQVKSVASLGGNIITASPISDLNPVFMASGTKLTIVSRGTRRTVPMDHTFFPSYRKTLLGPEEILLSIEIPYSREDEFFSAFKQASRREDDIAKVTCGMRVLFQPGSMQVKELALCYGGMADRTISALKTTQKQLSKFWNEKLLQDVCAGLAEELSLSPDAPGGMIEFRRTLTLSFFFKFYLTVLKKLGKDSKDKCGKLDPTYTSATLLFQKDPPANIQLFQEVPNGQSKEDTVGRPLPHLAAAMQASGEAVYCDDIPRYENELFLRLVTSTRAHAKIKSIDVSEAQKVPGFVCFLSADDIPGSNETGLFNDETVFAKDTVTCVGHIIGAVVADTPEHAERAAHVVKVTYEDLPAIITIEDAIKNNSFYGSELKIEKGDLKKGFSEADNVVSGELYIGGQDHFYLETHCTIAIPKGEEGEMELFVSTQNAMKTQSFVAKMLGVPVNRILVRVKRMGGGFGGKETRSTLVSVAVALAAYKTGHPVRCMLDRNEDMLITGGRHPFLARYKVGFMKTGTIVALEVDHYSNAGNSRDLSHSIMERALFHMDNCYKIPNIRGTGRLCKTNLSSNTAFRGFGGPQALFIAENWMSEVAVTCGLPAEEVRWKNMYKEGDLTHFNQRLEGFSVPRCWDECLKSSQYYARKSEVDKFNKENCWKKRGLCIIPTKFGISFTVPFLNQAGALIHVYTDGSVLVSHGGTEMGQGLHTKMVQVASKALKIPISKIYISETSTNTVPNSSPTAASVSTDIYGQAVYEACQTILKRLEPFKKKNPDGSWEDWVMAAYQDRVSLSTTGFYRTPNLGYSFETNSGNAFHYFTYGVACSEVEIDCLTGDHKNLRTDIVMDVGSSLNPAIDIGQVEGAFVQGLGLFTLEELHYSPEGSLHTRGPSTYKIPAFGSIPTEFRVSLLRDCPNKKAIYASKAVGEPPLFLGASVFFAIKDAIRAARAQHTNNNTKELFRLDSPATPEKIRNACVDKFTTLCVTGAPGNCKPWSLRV
Kind of assay: Xanthine oxidase inhibition (xanthine oxidase assay), uric acid production. In kind it is biochemical. The conditions noted are these: xanthine substrate, pH 7.8, absorbance at 295 nm; for IC50: read-out: IC-50 xanthine oxidase inhibition (converted). The protocol: Xanthine Oxidase Inhibition (Xanthine Oxidase Assay)
The activity of xanthine oxidase is determined by means of the uric acid production.
This solution is maintained on ice during the entire experiment to prevent changes in the activity of the enzyme.
724 μl phophate buffer pH=7.8
10 μl DMSO or the substance to be tested dissolved in DMSO
The reaction is started by addition of 66 μl of the enzyme solution to the above described assay mixture. […] If the reaction is linear, the result is expressed as Δ absorbance/min. […] The maximum activity is the activity of the enzyme, when no substance is dissolved in DMSO.

A short description of assay [2]: Peroxyl radical scavenging (β-phycoerythrin fluorescence assay, ORACROO). In kind it is biochemical. Set-up: key to TE (Trolox equivalent) (based on mole weight): ratio of net curve area to Trolox's, molar basis. The conditions noted are these: relative to Trolox, area under fluorescence curve. The method, then: In the β-phycoerythrin fluorescence based assay the reduction of β-phycoerythrin decomposition by radicals resulting from the thermal decomposition of V50 is measured. […]
Peroxyl Radical Scavenging (β-phycoerythrin fluorescence assay)
The principle underlying the present method is that B-phycoerythrin is decomposed by radicals that are the result of the thermolitic decomposition of V50 at 20° C. When a product scavenges these radicals, the decrease in fluorescence in time will occur less quickly. All measurements should be carried out at least in threefold.
AAPH (2,2′-azobis(2-aminopropane)dihydrochloride) (e.g. from Wako Chemicals)=V50; MW=271.19 g/mol; 16 mM in the assay
β-PE (e.g. from Sigma) MW=240,000 g /mol; 16.7 nM in the assay
Trolox (e.g. from Aldrich) MW =250.29 g/mol; in the assay test in the range of 1-10 μM.
Each tray should contain trolox as a reference and as a standard (2 μM or 0.5 mg/l). As a negative control a sample is taken containing only 10 μl ethanol, 50 μl 50 mM PBS, pH=7.4 and 50 μl 66.8 nM β-PE.
The reaction is started by adding 100 μl 32nM V-50. The time between pipetting and mixing of this last step in a well and the measurement of this well, should be constant. Further, the time between the last pipetting step in a well and the first measurement of the well should be less than 2 minutes.
V-50 should be stored in the dark at 4° C. until used. The reaction kinetics of the wells are monitored in a continuous monitoring process. The excitation wavelength is 540 nm, while the emission wavelength is 565 nm. The reaction is monitored until the signal of the sample differs no longer from the background signal (±10%). The area underneath the curve of the negative reference is subtracted from the area underneath the substance to be measured. This difference in area is then related to a difference in area in relation to a negative reference resulting from trolox.

For `O=c1cc(-c2ccc(O)cc2)oc2cc(O)cc(O)c12` [Apigenin], in assay [1], the IC50 is 999 nM and 1000 nM. Besides, in assay [2], the “TE (Trolox equivalent) (based on mass)” value came to 1.56 and the “TE (Trolox equivalent) (based on mole weight)” value (“TE … (based on mole weight)” for short) amounted to 1.69.
For `O=c1cc(-c2ccccc2)oc2cc(O)cc(O)c12` [Chrysin], the IC50 in assay [1] is 2540 nM and 2500 nM.
Turning to `COc1cc(/C=C/C(=O)CC(=O)/C=C/c2ccc(O)c(OC)c2)ccc1O` [Curcumin], the “IC-50 xanthine oxidase inhibition” value in assay [1] is reported as “not detectable”.
Still for that read-out and setting: the result for `Oc1cc(O)c2c(c1)O[C@H](c1ccc(O)c(O)c1)[C@H](O)C2` [Epicatechin] reads “not detectable”.
On to `O=C(O[C@@H]1Cc2c(O)cc(O)cc2O[C@@H]1c1cc(O)c(O)c(O)c1)c1cc(O)c(O)c(O)c1` [Epigalo-catechin-galate (ECCG), Epigalo-catechin-galate], for which the “IC-50 xanthine oxidase inhibition” value in assay [1] was “not detectable”. In addition, in assay [2], the “TE (Trolox equivalent) (based on mass)” value was determined as 0.54 and the “TE … (based on mole weight)” value was 0.99.
Consider `O=c1cc(-c2ccc(O)c(O)c2)oc2cc(O)cc(O)c12` [Luteolin], for which, in assay [1], the IC50 was 751 nM and 750 nM. For the same molecule, in assay [2], the “TE (Trolox equivalent) (based on mass)” value was 1.22 and the “TE … (based on mole weight)” value is 1.40.
Take `O=c1c(O)c(-c2cc(O)c(O)c(O)c2)oc2cc(O)cc(O)c12` [Myricetin]: the IC50 in assay [1] is 1510 nM and 1500 nM. Also, in assay [2], the “TE (Trolox equivalent) (based on mass)” value is given as 0.89 and the “TE … (based on mole weight)” value worked out at 1.13.
Regarding `O=C1c2ccc(O)cc2O[C@H](c2ccc(O)c(O)c2)[C@H]1O` [fustin], in assay [2], the “TE (Trolox equivalent) (based on mass)” value is 1.07 and the “TE … (based on mole weight)” value was determined as 1.24.
The like results for `O=c1c(O)c(-c2ccc(O)c(O)c2)oc2cc(O)cc(O)c12` [quercetin] were, in that order, 1.32 and 1.78.
